Data as given in patent US20220213047A1, “CARBONIC ANHYDRASE INHIBITORS FOR TREATMENT OF NEISSERIA GONORRHOEAE INFECTION” (Purdue Research Foundation, priority 2021, published 2022).
In brackets after ≈: the same amount, converted by molar mass. Read-outs that look alike come from different tables or passages of the source.

Experiments:
N. gonorrhoeae = assay: MIC by agar dilution on a larger panel of N. gonorrhoeae strains; assay type: cell-based, Neisseria gonorrhoeae; details: for MIC / MIC50 / MIC90: Neisseria gonorrhoeae; for Original MIC: in brackets in Table 8
Description: These tests were performed in normal culture conditions with standard CO2 levels and in CO2 (5% in incubator) conditions.

[1] = system: intracellular N. gonorrhoeae; assay: Intracellular clearance of N. gonorrhoeae in infected endocervical cells (End1/E6E7); assay type: cell-based; details: 5×MIC, 24 hours
From the text: Intracellular clearance of N. gonorrhoeae—N. gonorrhoeae is known to invade epithelial cells of the genital tract and cross the epithelial barrier into the subepithelial space^59. Previous studies have shown that N. gonorrhoeae can survive inside host cells and pass epithelial cell layers (a key step in causing disseminated infections)^60,61. Therefore, a drug candidate must also be able to kill intracellular N. gonorrhoeae in order to be an effective therapeutic. Also, we were concerned that CAIs have reduced activity in high-CO2 conditions and may not be suitable to treat intracellular infection. Thus, we examined CAIs ability to reduce the burden of intracellular N. gonorrhoeae present in infected endocervical cells^56.

Bifidobacterium sp = assay: MIC50 against pathogenic and commensal bacteria: Bifidobacterium sp; assay type: cell-based; details: Bifidobacterium sp (18 strains); normal
From the text: We have shown that CAIs display a narrow-spectrum of activity (Table 6). We have previously shown that CAIs have potential as anti-enterococcal agents for decolonization of the gut and treating systemic vancomycin-resistant enterococci (VRE) infections without affecting commensal strains common in the human microbiome or other pathogenic bacteria. […] The extremely narrow spectrum of this class of inhibitors would be a positive for clinical use as the molecules: 1) would not have deleterious effects on normal microbiota, and 2) would have less opportunity for resistance to arise to other important pathogenic strains aside from VRE.

[2] = strain panel of Table 9, CO2 (5% CO2 containing air)

Question: Which MIC (N. gonorrhoeae; N. gonorrhoeae 182, CO2 (5% CO2 containing air), read-out: MIC) does the source give for `CCOc1ccc2nc(S(N)(=O)=O)sc2c1` [Ethoxzolamide] here?
Answer: The MIC was 64 µg/mL (≈ 248 µM).

Question: And the MIC (N. gonorrhoeae; N. gonorrhoeae 182, Non CO2 (ambient air), read-out: MIC)?
Answer: The MIC was 0.25 µg/mL (≈ 0.968 µM).

Question: What about the MIC (N. gonorrhoeae; N. gonorrhoeae 183, CO2 (5% CO2 containing air), read-out: MIC) of the same compound?
Answer: The MIC was 32 µg/mL (≈ 124 µM).

Question: What about the MIC (N. gonorrhoeae; N. gonorrhoeae 184, CO2 (5% CO2 containing air), read-out: MIC) of the same compound?
Answer: Its MIC is 32 µg/mL (≈ 124 µM).

Question: What about the MIC (N. gonorrhoeae; N. gonorrhoeae 184, Non CO2 (ambient air), read-out: MIC) of the same compound?
Answer: The MIC was 0.25 µg/mL (≈ 0.968 µM).

Question: And the MIC (N. gonorrhoeae; N. gonorrhoeae 185, CO2 (5% CO2 containing air), read-out: MIC)?
Answer: The MIC was 64 µg/mL (≈ 248 µM).

Question: And the MIC (N. gonorrhoeae; N. gonorrhoeae 186, CO2 (5% CO2 containing air), read-out: MIC)?
Answer: The MIC was 64 µg/mL (≈ 248 µM).

Question: What about the MIC (N. gonorrhoeae; N. gonorrhoeae 188, CO2 (5% CO2 containing air), read-out: MIC) of the same compound?
Answer: The MIC was 64 µg/mL (≈ 248 µM).

Question: And the MIC (N. gonorrhoeae; N. gonorrhoeae 188, Non CO2 (ambient air), read-out: MIC)?
Answer: Its MIC is 0.06 µg/mL (≈ 0.232 µM).

Question: And the MIC (N. gonorrhoeae; N. gonorrhoeae 191, CO2 (5% CO2 containing air), read-out: MIC)?
Answer: Its MIC is > 128 µg/mL.

Question: And the MIC (N. gonorrhoeae; N. gonorrhoeae 191, Non CO2 (ambient air), read-out: MIC)?
Answer: Its MIC is 0.06 µg/mL (≈ 0.232 µM).

Question: What about the MIC (N. gonorrhoeae; N. gonorrhoeae 193, CO2 (5% CO2 containing air), read-out: MIC) of the same compound?
Answer: The MIC was 64 µg/mL (≈ 248 µM).

Question: And the MIC (N. gonorrhoeae; N. gonorrhoeae 194, CO2 (5% CO2 containing air), read-out: MIC)?
Answer: Its MIC is 64 µg/mL (≈ 248 µM).

Question: And the MIC (N. gonorrhoeae; N. gonorrhoeae 194, Non CO2 (ambient air), read-out: MIC)?
Answer: Its MIC is 0.25 µg/mL (≈ 0.968 µM).

Question: What about the MIC (N. gonorrhoeae; N. gonorrhoeae 196, CO2 (5% CO2 containing air), read-out: MIC) of the same compound?
Answer: Its MIC is > 128 µg/mL.

Question: And the MIC (N. gonorrhoeae; N. gonorrhoeae 197, CO2 (5% CO2 containing air), read-out: MIC)?
Answer: Its MIC is 128 µg/mL (≈ 496 µM).

Question: And the MIC (N. gonorrhoeae; N. gonorrhoeae 197, Non CO2 (ambient air), read-out: MIC)?
Answer: Its MIC is 0.25 µg/mL (≈ 0.968 µM).

Question: What about the MIC (N. gonorrhoeae; N. gonorrhoeae 198, CO2 (5% CO2 containing air), read-out: MIC) of the same compound?
Answer: The MIC was > 128 µg/mL.

Question: What about the MIC (N. gonorrhoeae; N. gonorrhoeae 198, Non CO2 (ambient air), read-out: MIC) of the same compound?
Answer: The MIC was 0.25 µg/mL (≈ 0.968 µM).

Question: And the MIC (N. gonorrhoeae; N. gonorrhoeae 200, CO2 (5% CO2 containing air), read-out: MIC)?
Answer: The MIC was > 128 µg/mL.

Question: And the MIC (N. gonorrhoeae; N. gonorrhoeae 200, Non CO2 (ambient air), read-out: MIC)?
Answer: The MIC was 0.25 µg/mL (≈ 0.968 µM).

Question: What about the MIC (N. gonorrhoeae; N. gonorrhoeae 202, CO2 (5% CO2 containing air), read-out: MIC) of the same compound?
Answer: Its MIC is 128 µg/mL (≈ 496 µM).

Question: What about the MIC (N. gonorrhoeae; N. gonorrhoeae 202, Non CO2 (ambient air), read-out: MIC) of the same compound?
Answer: Its MIC is 0.06 µg/mL (≈ 0.232 µM).

Question: And the MIC (N. gonorrhoeae; N. gonorrhoeae 203, CO2 (5% CO2 containing air), read-out: MIC)?
Answer: The MIC was 64 µg/mL (≈ 248 µM).

Question: And the MIC (N. gonorrhoeae; N. gonorrhoeae 205, CO2 (5% CO2 containing air), read-out: MIC)?
Answer: The MIC was 128 µg/mL (≈ 496 µM).

Question: What about the MIC (N. gonorrhoeae; N. gonorrhoeae 206, CO2 (5% CO2 containing air), read-out: MIC) of the same compound?
Answer: Its MIC is > 128 µg/mL.

Question: And the MIC (N. gonorrhoeae; N. gonorrhoeae 207, CO2 (5% CO2 containing air), read-out: MIC)?
Answer: Its MIC is 64 µg/mL (≈ 248 µM).

Question: What about the MIC (N. gonorrhoeae; N. gonorrhoeae 208, CO2 (5% CO2 containing air), read-out: MIC) of the same compound?
Answer: The MIC was > 128 µg/mL.

Question: What about the MIC (N. gonorrhoeae; N. gonorrhoeae 209, CO2 (5% CO2 containing air), read-out: MIC) of the same compound?
Answer: Its MIC is > 128 µg/mL.

Question: And the MIC (N. gonorrhoeae; N. gonorrhoeae 209, Non CO2 (ambient air), read-out: MIC)?
Answer: The MIC was 0.06 µg/mL (≈ 0.232 µM).

Question: And the MIC (N. gonorrhoeae; N. gonorrhoeae 210, CO2 (5% CO2 containing air), read-out: MIC)?
Answer: The MIC was 64 µg/mL (≈ 248 µM).

Question: What about the MIC (N. gonorrhoeae; N. gonorrhoeae 211, CO2 (5% CO2 containing air), read-out: MIC) of the same compound?
Answer: The MIC was 64 µg/mL (≈ 248 µM).

Question: And the MIC (N. gonorrhoeae; N. gonorrhoeae 211, Non CO2 (ambient air), read-out: MIC)?
Answer: The MIC was 0.5 µg/mL (≈ 1.94 µM).

Question: And the MIC (N. gonorrhoeae; N. gonorrhoeae 212, CO2 (5% CO2 containing air), read-out: MIC)?
Answer: The MIC was 64 µg/mL (≈ 248 µM).

Question: What about the MIC (N. gonorrhoeae; N. gonorrhoeae 212, Non CO2 (ambient air), read-out: MIC) of the same compound?
Answer: The MIC was 0.25 µg/mL (≈ 0.968 µM).

Question: And the MIC (N. gonorrhoeae; N. gonorrhoeae 213, CO2 (5% CO2 containing air), read-out: MIC)?
Answer: Its MIC is 64 µg/mL (≈ 248 µM).

Question: And the MIC (N. gonorrhoeae; N. gonorrhoeae 214, CO2 (5% CO2 containing air), read-out: MIC)?
Answer: Its MIC is 64 µg/mL (≈ 248 µM).

Question: What about the MIC (N. gonorrhoeae; N. gonorrhoeae 214, Non CO2 (ambient air), read-out: MIC) of the same compound?
Answer: The MIC was 0.25 µg/mL (≈ 0.968 µM).

Question: What about the MIC50 (N. gonorrhoeae; N. gonorrhoeae (39 strains), CO2 (5% CO2 in the incubator)) of the same compound?
Answer: The MIC50 was > 128 µg/mL.

Question: And the MIC50 (N. gonorrhoeae; [2])?
Answer: The MIC50 was > 128 µg/mL.

Question: And the MIC90 (N. gonorrhoeae; [2])?
Answer: Its MIC90 is > 128 µg/mL.

Question: And the MIC (N. gonorrhoeae; strain panel of Table 9, CO2 (5% CO2 containing air), read-out: Modal MIC)?
Answer: The MIC was > 128 µg/mL.

Question: And the MIC90 (N. gonorrhoeae; strain panel of Table 9, Non CO2 (ambient air, standard CO2 conditions))?
Answer: The MIC90 was 0.5 µg/mL (≈ 1.94 µM).

Question: And the Original MIC (N. gonorrhoeae; Ng 197)?
Answer: Its Original MIC is 0.25 µg/mL.

Question: What about the Original MIC (N. gonorrhoeae; Ng 202) of the same compound?
Answer: The Original MIC was 0.06 µg/mL.

Question: And the “reduction in N. gonorrhoeae inside infected endocervical cells” value [1]?
Answer: Its value is 5.8 log10.

Question: And the MIC50 (Bifidobacterium sp)?
Answer: Its MIC50 is > 256 µg/mL.
